Source: patent KR20220113942A, “제조성 및 용출성이 우수한 소형 정제” (스미토모 파마 가부시키가이샤, priority 2019, dated 2021)

Test: Test Example 2: evaluation of tabletability (capping on tableting)
Assay type: physicochemical
Conditions: conclusion in words from Table 22

- compression moldability: 압축 성형성이 나빠서
- tendency to tableting failure (capping) as drug content ratio in the tablet rises (high drug content ratio in the tablet): 타정 장해(캐핑)가 발생하기 쉬움
SMILES: C[C@@H]1N=C(N)NC(N(C)C)=N1 [이메글리민, (6R)-N2,N2,6-트리메틸-3,6-디히드로-1,3,5-트리아진-2,4-디아민, 염산염]
